3 molecules from US8580769B2, “Treatment of obesity, metabolic syndrome, and diabetes with protein kinase C inhibitors” (The United States of America as represented by the …, priority 2011, dated 2013) can be followed below.

The subject of one experiment is aPKC. The experiment in a line: tissue aPKC activity in Het-MλKO mice. As to conditions: for aPKC activation in adipose tissue / aPKC activation in muscle: 7-day treatment s.c. (ATM 60 mg/kg; ICAPP 0.4 mg/kg). The experiment is classed as in vivo, mouse. From the text: (§1) In Vivo Mouse Studies: Male wild type (WT) and heterozygous muscle-specific PKC-λ knockout (Het-MλKO) mice were generated as described (Farese et al., J. Clin. Invest. 117:2289-2301, 2007) and used at 6-12 months of age, when the O/MS/T2DM phenotype in MλKO mice is well-developed. Mice were housed in a temperature-controlled environment with alternating 12-hour light and dark cycles, and fed ad libitum with standard chow (Harlan Teklad 20/18 with 5% fat, (10% of calories from fat)). All experimental procedures in mice were approved by the Institutional Animal Care and Use Committees of the Roskamp Institute and the University of South Florida College of Medicine, and the James A. Haley Veterans Administration Medical Center Research and Development Committee, Tampa, Fla.
(§2) (ICAPP; prepared by Southern Research, Birmingham, Ala.) at 0.4 mg/kg body weight. On the morning of the eighth day of inhibitor treatment, mice were injected intraperitoneally (IP) with 0.9% saline or saline containing 1 U insulin/kg body weight 15 minutes before sacrifice, an optimal time for studies of insulin stimulation of aPKC and Akt in liver, muscle and adipose tissues (Standaert et al., J. Biol. Chem. 279:24929-24934, 2004; Sajan et al., J. Lipid Res. 50:1133-1145, 2009; Sajan et al., Diabetologia 52:1197-1207, 2009; Farese et al., J. Clin. Invest. 117:2289-2301, 2007). After killing, blood, liver, quadriceps muscle and abdominal adipose tissues were rapidly removed and homogenized in buffer with a POLYTRON® homogenizer.
(§3) Tissue and Immunoprecipitate Preparations: As previously described (Standaert et al., J. Biol. Chem. 279:24929-24934, 2004; Sajan et al., J. Lipid Res. 50:1133-1145, 2009; Sajan et al., Diabetologia 52:1197-1207, 2009; Farese et al., J. Clin. Invest. 117:2289-2301, 2007) hepatocytes and tissues from in vivo experiments were homogenized in ice-cold buffer containing 0.25 M sucrose, 20 mM Tris/HCl (pH 7.5), 2 mM EGTA, 2 mM EDTA, 1 mM phenylmethylsulfonyl fluoride (PMSF), 20 μg/ml leupeptin, 10 μg/ml aprotinin, 2 mM Na4P2O7, 2 mM Na3VO4, 2 mM NaF, and 1 μM microcystin. After centrifugation for 10 minutes at 700×g to remove unbroken cells, debris, nuclei, and floating fat, cell lysates were stored at −70° C. After addition of 1% TRITON® X-100, 0.6% Nonidet and 150 mM NaCl, lysates were cleared of insoluble materials by low-speed centrifugation and subsequently immunoprecipitated with antibodies that target: (a) aPKCs (rabbit polyclonal antiserum from Santa Cruz Biotechnologies (Santa Cruz, Calif.) that recognizes C-termini of both PKC-λ and PKC-ζ); and (b) Akt2 (Upstate Cell Signaling/Millipore, Billerica, Mass.). Immunoprecipitates were collected on Sepharose-AG beads (Santa Cruz Biotechnologies).
aPKCι Assays: aPKC enzyme activity was measured as previously described (Standaert et al., J. Biol. Chem. 279:24929-24934, 2004; Sajan et al., J. Lipid Res. 50:1133-1145, 2009; Sajan et al., Diabetologia 52:1197-1207, 2009; Farese et al., J. Clin. Invest. 117:2289-2301, 2007). […] After incubation, ^32P-labeled substrate was trapped on P-81 filter paper and counted. This assay reflects the specific activity of a constant amount of aPKC (even in Het-MλKO mice) that is immunoprecipitated by supplier-prescribed amounts of antiserum (Farese et al., J. Clin. Invest. 117:2289-2301, 2007; Beeson et al., Diabetes 52:1926-1934, 2003).

A further experiment addresses T1, Akt2 (Mus musculus, UniProt Q60823).
T1 construct: from tissue; host or cells: mouse liver, quadriceps muscle and abdominal adipose tissue
Description: tissue Akt activity in Het-MλKO mice. The experiment is classed as in vivo. As to conditions: for Akt activation in adipose tissue / Akt activation in muscle: 7-day treatment s.c. (ATM 60 mg/kg; ICAPP 0.4 mg/kg).
From the text: as §1, §2, §3
Akt2 Assay: Akt2 enzyme activity was measured with a kit obtained from Upstate Cell Signaling, as described (Standaert et al., J. Biol. Chem. 279:24929-24934, 2004; Sajan et al., J. Lipid Res. 50:1133-1145, 2009; Sajan et al., Diabetologia 52:1197-1207, 2009; Farese et al., J. Clin. Invest. 117:2289-2301, 2007). In brief, Akt2 was immunoprecipitated from lysates with rabbit polyclonal antibodies, collected on Sepharose-AG beads, and incubated as per kit directions. Akt1/2 activation was also assessed by immunoblotting for phosphorylation of serine-473.

The mark [1] stands for this setting: Het-MλKO mice, s.c. once daily (ICAPP 0.4 mg/kg 7 days; ICAP 0.5 mg/kg 8 days).
[2] abbreviates: ICAP-treated Mλ-Het KO mice (n = 12), 0.5 mg/kg body weight/day x 8 days s.c., mean ± SEM.

T1 sequence (Q60823 whole entry): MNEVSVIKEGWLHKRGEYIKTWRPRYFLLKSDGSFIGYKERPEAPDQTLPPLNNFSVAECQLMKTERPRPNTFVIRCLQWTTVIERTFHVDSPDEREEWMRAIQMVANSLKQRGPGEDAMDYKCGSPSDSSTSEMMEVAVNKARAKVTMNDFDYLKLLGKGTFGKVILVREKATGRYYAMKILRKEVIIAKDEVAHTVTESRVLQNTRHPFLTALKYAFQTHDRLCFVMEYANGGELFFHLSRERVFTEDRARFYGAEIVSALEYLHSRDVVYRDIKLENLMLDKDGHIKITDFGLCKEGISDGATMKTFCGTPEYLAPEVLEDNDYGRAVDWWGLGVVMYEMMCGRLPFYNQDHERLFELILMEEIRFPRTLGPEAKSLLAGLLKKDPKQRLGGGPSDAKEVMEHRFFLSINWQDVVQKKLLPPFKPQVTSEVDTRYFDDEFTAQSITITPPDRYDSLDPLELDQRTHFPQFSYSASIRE

Take `O=C([O-])CC([S][Au])C(=O)[O-]` (stereo not shown) [ATM, aurothiomalate, reference compound]: in the experiment with aPKC (Het-MλKO mice), the “aPKC activation in adipose tissue” value is recorded as “increased significantly” and the “aPKC activation in muscle” value was “increased significantly”. At Akt2 (Het-MλKO mice), the “Akt activation in adipose tissue” value is listed as “increased or trended upward” and the “Akt activation in muscle” value is recorded as “increased or trended upward”. Besides, the “Akt activation/activity in liver” value on Akt2 (Het-MλKO mice, s.c. once daily (ATM 60 mg/kg; ICAPP 0.4 mg/kg; ICAP 0.5 mg/kg)) is “increased or trended upward”.
Consider `NC(=O)c1ncn([C@@H]2C[C@H](CO)[C@@H](O)[C@H]2O)c1N` [ICAP, 1H-imidazole-4-carboxamide 5-amino-1-[2,3-dihydroxy-4-[hydroxymethyl]cyclopentyl]-[1R-(1α,2β,3β,4α)]], for which the figures for the “hepatic aPKC activity” value in the experiment on aPKC (setting [1]) and in the experiment with aPKC (setting [2]) were “inhibited” and 1374 ± 128 cpm/immunoppt, respectively. The “Hepatic Akt activity” value on Akt2 (setting [2]) stood at 1151 ± 226 cpm/immunoppt.
On to `NC(=O)c1ncn([C@@H]2C[C@H](COP(=O)(O)O)[C@@H](O)[C@H]2O)c1N` [ICAPP, 1H-imidazole-4-carboxamide, 5-amino-1-[2,3-dihydroxy-4-[(phosphonooxy)methyl]cyclopentyl]-[1R-(1α,2β,3β,4α)]], for which, in the experiment on aPKC (Het-MλKO mice), the “aPKC activation in adipose tissue” value is “increased significantly or trended upward” and the “aPKC activation in muscle” value is given as “increased significantly or trended upward”. Further, the “hepatic aPKC activity” value with aPKC (setting [1]) is given as “diminished”. Moreover, at Akt2 (Het-MλKO mice), the “Akt activation in adipose tissue” value is listed as “increased significantly or trended upward” and the “Akt activation in muscle” value was “increased significantly or trended upward”.
